These results are taken from US11707557B2, “Compositions and devices incorporating water-insoluble therapeutic agents and methods of the use thereof” (COOK MEDICAL TECHNOLOGIES LLC, priority 2014, dated 2023).

The subject of the data set is fresh rat aorta artery. Description: Paclitaxel uptake into artery tissue from coated balloon catheter. It is filed as in vitro ADME. The settings on record: for available paclitaxel taken up by the artery / available paclitaxel washed out from the artery: ignoring catheter residual and gloves wash. The protocol:
A 2-3 cm strip of fresh rat aorta artery was placed over a 200 microliter pipette tip and fed onto the deflated balloon catheter to mimic the feeding of the balloon into the blood vessel. The balloon was then inflated and the system was left for 2 minutes at 37° C. in a bath of Hanks buffered salt solution (HBSS). The balloon was then deflated and 300 microliters of HBSS pipetted into the artery and the wash out collected in a centrifuge tube. This wash step was repeated three times. Because the handler's gloves were moist and had contacted the balloon (and therefore absorbed some EGCG/drug) the gloves fingers were washed extensively in 100 ml of HBSS.
The aorta tissue was placed in 500 microliters of tissue solubilizer and left at 60° C. for 4 hours to digest. The contents were then placed in a scintillation counter. The deployed catheter balloon was observed after the procedure. Some of the balloon had not deployed (the balloon was tight in the aorta and not fully inflated) and traces of the reddish colored EGCG/drug could be observed in the folds. […] The catheter balloon was then inflated in 5 ml of acetonitrile to recover the undissolved EGCG and measured by scintillation counting. All other fractions (aorta wash and gloves wash were also counted. These four fractions (aorta, gloves, catheter residual and aorta wash) accounted for all drug and the total scintillation count form everything was taken and 100% of the applied drug.
A balloon catheter was inflated and revolved along its horizontal axis. The drug/EGCG solution was slowly pipetted onto the balloon using 25 microliters at a time and dried with gentle heat from an electric blowdryer. A 2-3 cm strip of fresh rat aorta artery was placed over a 200 microliter pipette tip and fed onto the deflated balloon catheter to mimic the feeding of the balloon into the blood vessel. The balloon was then inflated and the system was sonicated for 2 minutes at 37° C. in Hanks buffered salt solution (HBSS) (4 MHz, 30 watts/cm2). The balloon was then deflated and 300 microl of (HBSS) was pipetted into the artery and the wash out collected in a centrifuge tube. This wash step was repeated three times. Samples were collected as in the previous example.
A balloon catheter was inflated and revolved along its horizontal axis. The drug/diblock solution was slowly pipetted onto the balloon using 25 microliters at a time and dried with gentle heat from an electric blowdryer. […] A 2-3 cm strip of fresh rat aorta artery was placed over a 200 ul pipette tip and fed onto the deflated balloon catheter to mimic the feeding of the balloon into the blood vessel. The system was then immersed in Hanks buffered salt solution (HBSS) at 37° C. for 2 minutes.
A balloon catheter was inflated and revolved along its horizontal axis. The drug/tannic acid solution was slowly pipetted onto the balloon using 25 microliters at a time and dried with gentle heat from an electric blowdryer.

Structures are written as SMILES.

Regarding `CC(=O)O[C@H]1C(=O)[C@@]2(C)[C@H]([C@H](OC(=O)c3ccccc3)[C@]3(O)C[C@H](OC(=O)[C@H](O)[C@@H](NC(=O)c4ccccc4)c4ccccc4)C(C)=C1C3(C)C)[C@]1(OC(C)=O)CO[C@@H]1C[C@@H]2O` [paclitaxel], the “total paclitaxel associated with the artery” value (shortened to “total paclitaxel associated”) (EGCG coating (30 mg EGCG, 300 microgram drug), 2 minutes 37° C.) is “More than 50%”; the “total paclitaxel associated” value (EGCG coating with ultrasound (4 MHz, 30 watts/cm2), 2 minutes) is “More than 50%”; the “total paclitaxel associated” value (diblock copolymer coating (6 mg), 2 minutes) is reported as “Approximately 10%”; the “total paclitaxel associated” value (tannic acid coating) is reported as “Approximately 40%”. For the same compound, the “total paclitaxel washed out of the artery” value is, setting by setting: (EGCG coating with ultrasound) 2%; (EGCG coating, 2 minutes 37° C.) 2%; (diblock copolymer coating) “less than 2%”; (tannic acid coating) “less than 1%”. Further, the “available paclitaxel taken up by the artery” value by setting is: (EGCG coating with ultrasound) “approximately 95%”; (EGCG coating) “approximately 95%”. For the same compound, the “available paclitaxel washed out from the artery” value is recorded as “less than 5%” (EGCG coating with ultrasound) and “less than 5%” (EGCG coating). Also, under “tannic acid coating”, the “residual on the catheter” value is reported as “approximately 29%”. Also, where the note is “tannic acid coating, ignoring drug on catheter and gloves”, the “available drug transferred to the tissues” value is “over 95%”.
